Measured values as given in publication PMC8893300, “A Dynamic Mass Redistribution Assay for the Human Sweet Taste Receptor Uncovers G-Protein Dependent Biased Ligands” (Frontiers in Pharmacology, 2022).

System: human sweet taste receptor (hT1R2/hT1R3) coupled to Gα16gust25
Assay: FLIPR calcium mobilization assay, R2/R3 Gα16gust25 U2OS cells
Format: cell-based
Settings: for ΔlogR FLIPR Mean: FLIPR-Gα16gust25, operational model, logR minus sucralose logR; for ΔΔlogR Mean: ΔlogR FLIPR-Gα16gust25 minus ΔlogR DMR
Experimental: The R2/R3 U2OS clone produced above was subsequently transfected with a linearized plasmid encoding Gα16gust25 in pcDNA3-neo. Transfected cells surviving triple selection in growth medium containing 0.5 μg/ml Puromycin (for hT1R2 expression), 100 μg/ml zeocin (for hT1R3 expression) and 500 μg/ml geneticin (Gα16gust25 expression) were diluted at various densities to obtain isolated colonies. Individual colonies were expanded, and the presence of functional human sweet receptor and G protein was evaluated in a FLIPR assay using sucralose as the agonist. Selected colonies were further evaluated with a larger panel of agonists. One clone, called L1F2, was used for this study.
Cells were gently mixed with the virus at a multiplicity of infection (MOI) of 5. Using a multidrop, 70 μl per well of the cell and virus mixture was dispensed in a 384-well clear bottom plate (Fisher). After 24 h of incubation in a humidified 37°C tissue culture incubator, trichostatin A was added to a final concentration of 0.3 μM and the cells were incubated for another 18–24 h at 34°C. On the day of the experiment, cells were loaded with 4 μM of the calcium indicator Fluo-4 AM (Invitrogen) in D-PBS for 1 h at room temperature. After washing the cells with D-PBS using a cell washer (BioTek) and a 30-minute rest time, the cell plate and the compound plate were transferred into the FLIPR-Tetra (Molecular Devices). Imaging and data analysis was performed as described ([Servant et al., 2010]). Alternatively, R2/R3 Gα16gust25 U2OS cells were re-suspended at a final density of 2.25 × 10^5 viable cells per mL and the mixture was dispensed in a 384-well clear bottom plate (Fisher) at 80 μl per well. Loading and the FLIPR assay were run as described above. When indicated, data for agonist dose-responses were normalized to data obtained with a maximum concentration of sucralose (1 mM) and then fitted and plotted using GraphPad Prism (San Diego, CA) and non-linear regression analysis.
To visualize and assess bias between the two different cell-based assays, we used bias plotting as described ([Drake et al., 2008]; [Peters and Scott, 2009]; [Gregory et al., 2010]; [Thomsen et al., 2012]; [Kenakin, 2015]; [Montero-Melendez et al., 2015]). To calculate relative potency bias between the two assays, we calculated a ratio of the negative logarithm of the EC50 (in M) of each agonist to that of sucralose (a sucralose dose-response was performed as a control on the same day) as described: pEC50 compound X–pEC50 sucralose. This value, that we termed pEC50Ratio (sucralose) or pEC50R (sucralose), was calculated with EC50 values obtained in the two assay systems. This transformation also allowed determination of an average and a standard error for the pEC50R (sucralose). The two sets of data (DMR and FLIPR data) were then analyzed with an un-paired t-test (α = 0.05). To calculate relative efficacy bias between the two assays, we captured the top asymptote value from each activity-normalized dose-response curve, as provided by the curve fit, calculated an average and a standard deviation (sd) for each agonist and then analyzed the data pairs with an un-paired t-test (α = 0.05). Assay bias was also estimated using an operational model ([Kenakin et al., 2012]; [Nagi and Pineyro, 2016]). The following steps were followed: 1) Using the PRISM software, we re-analyzed each ligand’s dose-response data obtained in each assay with non-linear regression and the users-defined equation “New Operational Model with TauKa ratios” and retrieved logR values from the fits.

SMILES: COC(=O)[C@H](Cc1ccccc1)NC(=O)[C@H](CC(=O)O)NCCC(C)(C)C [Neotame]
- ΔlogR FLIPR Mean: 1.52
- ΔΔlogR Mean: 0.36

SMILES: CC(C)Oc1ccc(NC(=S)NCc2cccs2)cc1 [S5227]
- ΔlogR FLIPR Mean: 1.73
- ΔΔlogR Mean: −0.12

SMILES: CC(C)Oc1ccc(NC(=S)NCc2ccc[nH]2)cc1 [S819]
- ΔlogR FLIPR Mean: 2.40
- ΔΔlogR Mean: −0.13
